Experimental findings from patent US4786723A, “7-hydroxyguanine compounds, process for preparing said compounds, and anti-tumor agent containing the same” (Kanegafuchi Chemical Industry Co., Ltd., priority 1985, dated 1988) are described below.

By LD50 is commonly meant the dose expected to kill half of the subjects tested.

One data set concerns L-1210 leukemia. The experiment in a line: Anti-tumor activity against L-1210 leukemia in mice. The conditions noted are these: intraperitoneal, 5 days, BDF1 female mice. It is filed as in vivo, mouse. The method, then:
Anti-tumor activity against L-1210 leukemia in mice
BDF1 female mice weighing 18-23 g (one group: 3 mice) were used. The mice were intraperitoneally inoculated with mouse L-1210 leukemia cells (1×10^5). […] As a control, 50 mM phosphate buffer (pH 7.4) without a test compound was intraperitoneally administered likewise. Based on the data, the life-prolongation ratio of the test compound was calculated.

A further data set can be described thus: Acute toxicity. The conditions noted are these: mouse, in vivo, ip; ICR male mice weighing 18-23 g, intraperitoneally administered for one week; read-out: 50% lethal toxicity (LD50). The procedure: ICR male mice weighing 18-23 g were intraperitoneally administered with the test compounds for one week, and the 50% lethal toxicity (LD50 : mg/kg) was measured by a conventional method.

Regarding `Nc1nc(O)c2c(n1)n([C@@H]1O[C@H](CO)[C@@H](O)[C@H]1O)c[n+]2[O-]` [Compound A, 7-hydroxyguanine riboside], the values for the Life-prolongation ratio in the data set on L-1210 leukemia (1.0 mg/kg/day), with L-1210 leukemia (4.0 mg/kg/day) and in the data set on L-1210 leukemia (16.0 mg/kg/day) were 128.9, 148.2 and 148.2, respectively. Besides, the LD50 in the data set “Acute toxicity” came out at 192 mg/kg.
For `Nc1nc(O)c2c(n1)n([C@H]1C[C@H](O)[C@@H](CO)O1)c[n+]2[O-]` [Compound B, 7-hydroxyguanine deoxyriboside], the Life-prolongation ratio in the data set with L-1210 leukemia (1.0 mg/kg/day) came to 120.5; in the data set on L-1210 leukemia (4.0 mg/kg/day) it was 160.2; in the data set with L-1210 leukemia (16.0 mg/kg/day), 168.7. Besides, in “Acute toxicity”, the LD50 was 172 mg/kg.
